Assay results from article PMC12336229, “Peptide-mimetics derived from leucyl-tRNA synthetase are potential agents for the therapy of mt-tRNA related diseases” (Frontiers in Pharmacology, 2025).

How the values were obtained:
[1] = system: control cells (WT and L-8344 cybrids); assay: Respirometry assay, oxygen consumption rate (Clark type oxygen electrode); assay type: cell-based, human; details: after 36 h, treated/vehicle ratio
Method: (§1) Previously established osteosarcoma-derived (143B.TK-) cybrid cell lines from patients, which bear either the m.3243A>G mutation in mt-tRNA^Leu(UUR) or the m.8344A>G mutation in mt-tRNA^Lys and controls ([Perli et al., 2014]; [Perli et al., 2016]; [Perli et al., 2020]) were used.
(§2) Oxygen consumption rate (OCR) of cybrids was evaluated with Clark type oxygen electrode (Hansatech Instruments, Norfolk, United Kingdom). After cybrid incubation with compounds at 5 µM concentration, both control and mutant cybrids were maintained in glucose medium for 36 h, then OCR was measured in intact cells (3 × 10^6) in 1 mL DMEM lacking glucose supplemented with […].

[2] = system: m.8344A>G mutant cybrids (H-8344); assay: as above; assay type: cell-based, human; details: 5 µM; after 36 h of treatment; compared with vehicle mutant cells
Method: as §1, §2

m.3243A>G mutant cybrids = assay: as above; assay type: cell-based, human; details: 5 µM; after 36 h of treatment; compared with vehicle mutant cells
Method: as §1, §2

Adult C57BL/6 male mice [3] = assay: Morphological analysis of selected organs (hematoxylin and eosin); assay type: in vivo, mouse; details: 1, 5 and 10 mg/kg i.v.; hematoxylin and eosin sections; treated vs controls
Method: (§3) After the test, mice were sacrificed under general anaesthesia (4% isoflurane in medical air) by cardiac puncture to withdraw blood, brain, heart, liver, kidney, spleen, and lymph nodes, which were collected into tubes with buffered formalin and stored at +4°C.
At the end of the tolerability test, tissues collected from animals injected with saline (n = 5) or treated with 1, 5 and 10 mg/kg of PMT (n = 10), were formalin-fixed and paraffin-embedded. Five µm-thick sections were obtained from the paraffin blocks and stained with hematoxylin and eosin for histologic examination.

mutant cybrids = assay: Confocal fluorescence microscopy, co-localization with mitochondria (Mitotracker Red); assay type: cell-based, human
Method: as §1
Constructs made of compounds listed in Table 1, comprising D-peptides linked to the Cy5 fluorophore via maleimide cross-linker, were administered to sub-confluent cybrid cell cultures at 0.25 µM in glucose medium. About 24 h after treatment with each construct, cells were incubated with 200 nM Mitotracker Red FM (LifeTechnologies Italia, Monza, Italy) for 30 min at 37°C.
Subsequently, cells were visualized by confocal microscopy. Images of 800 × 800 px (at 88 nm/px) were acquired at the Olympus iX83 FluoView1200 laser scanning confocal microscope using a 60 × NA1,35 oil objective (Olympus Italia SRL Milano, Italy), zoom 3×, 559 nm, and 635 nm lasers and filter setting for Mitotracker Red and Cy5. The fluorescence images were analysed with the ImageJ software ([Rasband, 2018]) to determine the Pearson’s correlation coefficient.
For a subset of experiments, we evaluated the mt localization of constructs up to 72 h after treatment. PMT and PMT fragments were administered to sub-confluent cybrids at a concentration of 0.25 µM in the glucose medium. At 24-, 48- and 72-h after treatment, cells were incubated with Mitotracker Red and visualized by confocal microscopy. After each confocal imaging section, a fresh glucose medium was added to the cells, which were maintained under standard conditions (a humidified atmosphere of 95% air and 5% CO2 at 37°C).

Adult C57BL/6 male mice [4] = assay: Tolerability in animals (i.v., scores, body weight, grid-hanging test); assay type: in vivo
Method: Sixty adult C57BL/6 male mice were initially included in the study. Twenty animals were dedicated to in vivo/ex vivo biodistribution of the radiolabelled PMT ^64Cu-PMT. The evaluation was carried out at four time points: 1, 3, 24 and 48 h. Forty animals were dedicated to tolerability studies with increasing PMT concentration: 1, 5, 10 and 50 mg/kg PMT or saline, i. v. (n = 10 per group). […] Therefore, only three groups of ten animals were dedicated to the tolerability test, and fifty C57BL/6 male mice were employed for the current study in total. […] Due to the rapidity of death, and the hydrophobic character of the C-terminal region of the PMT (see the Discussion section), it is possible that PMT aggregates obstructed one or more small vessels, causing micro-infarctions in vital organs (e.g., lung, heart, brain).
Adult C57BL/6 male mice were used to determine the general tolerability of i. v. administered PMT and identify the Maximum Tolerated Dose (MTD). To this purpose, animals were divided into four groups (n = 10 each) and injected in a tail vein with either saline (controls) or PMT freshly dissolved in saline at three scalar doses (1, 5 or 10 mg/kg). Each group was randomly divided in two subgroups (n = 5 each). Blood ocular withdrawal was performed at 1 h and 48 h post-injection for each subgroup, respectively. During this procedure, animals were anaesthetized with isoflurane (2% in medical air) and monitored until awakening.
The effect of PMT administration was evaluated every 2 days by observation of the animals and application of the following criteria and scores (see Supplementary Table S1): body weight loss (score: 1–5); coat conditions (score: 1–3); dehydration (score: 1–3); respiration (score: 1–3); spontaneous behaviour (score: 0–5); reaction to handling (score: 0–3) (IACUC of the San Raffaele Research Institute and FELASA Glossary 2015 ([Fentener van Vlissingen et al., 2015]).
The observation was carried out for 2 weeks post peptide injection. At the end, all the animals underwent a grid-hanging test to measure muscular strength performances after PMT or saline treatment ([Gayi et al., 2018]).
After a period of habituation to the metallic grid, mice were placed individually on top of a metallic grid (40 × 40 cm, 1.3 cm square mesh) suspended 50 cm above an empty cage. The grid was turned upside down and latency to fall was measured up to a fixed limit of 600 s. Each mouse performed three trials and the longest holding time (s) among them was multiplied by the animal’s body weight (g) to calculate Holding impulse (g*s).
as §3
Data on PMT tolerability in animals (i.e., body mass monitoring and grip-hanging test) are expressed as mean ± SD and analysed using one-way ANOVA corrected for multiple comparison Turkey test.

In the case of `CC[C@@H](C)[C@@H](NC(=O)[C@@H](CC(C)C)NC(=O)[C@@H](C)NC(=O)[C@H](NC(=O)[C@@H](CCCNC(=N)N)NC(=O)[C@H]1CCCN1C(=O)[C@@H](CO)NC(=O)[C@@H](CC(C)C)NC(=O)[C@@H](Cc1ccccc1)NC(=O)[C@@H](CO)NC(=O)[C@@H](CCCCN)NC(=O)[C@H](N)CCCCN)[C@H](C)O)C(=O)N[C@H](CC(N)=O)C(=O)N[C@H](Cc1ccccc1)C(=O)N[C@H](CC(C)C)C(=O)N[C@@H](C(N)=O)C(C)C` [PMT], the “Oxygen consumption of control cells” value [1] is reported as “do not affect”, the Oxygen consumption rate [2] is reported as “significant increase” and the Oxygen consumption rate (m.3243A>G mutant cybrids) is reported as “significant increase”. For the same compound, the “Morphological change in organs or tissues” value (Adult C57BL/6 male mice [3]) was “did not reveal any morphological change”, the “Pearson's correlation coefficient (PCC), mt localization” value (mutant cybrids; Cy5 constructs 0.25 µM in glucose medium, imaged after 24 h, Mitotracker Red, mean ± SEM of at least five images) was 0.83 ± 0.02 and the “Mitochondrial localization over time” value (mutant cybrids; Cy5 constructs 0.25 µM, imaged after 24, 48 and 72 hours) was “colocalize with mitochondria up to 72 hours”. For the same compound, the “Tolerability after a single i.v. acute administration” value (Adult C57BL/6 male mice [4]; 1, 5 and 10 mg/kg, wild-type mice, 14 days of observation) was “well tolerated”, the “Mice with decrease of body weight (score 4)” value (Adult C57BL/6 male mice [4]; mouse, in vivo) was 1/10 and the “Mice with mild tachypnoea (score 1)” value (Adult C57BL/6 male mice [4]; mouse, in vivo) was 5/10. For the same compound, the “Mice with slight decrease of body weight (score 1)” value (Adult C57BL/6 male mice [4]; mouse, in vivo) was 5/10, the “Mice with slight decrease of body weight (score 1–2)” value (Adult C57BL/6 male mice [4]; mouse, in vivo) was 5/10 and the “Outcome of the highest dose” value (Adult C57BL/6 male mice [4]; mouse, in vivo) was “died immediately after the administration”. The Safe dosage (Adult C57BL/6 male mice [4]; mouse, in vivo, iv) was “up to 10 mg/kg” and the Necropsy finding (Adult C57BL/6 male mice [4]; mouse, in vivo, iv, 50 mg/kg) was “did not highlight any obvious macroscopic effect”.
